This is an account of results in patent publication US8507510B2, “Sulfoximine-substituted pyrimidines as CDK- and/or VEGF inhibitors, their production and use as pharmaceutical agents” (Bayer Intellectual Property GmbH, priority 2003, dated 2013).

pIC50: −log10 of the molar value.

Test [1] concerns MCF7. Put plainly: Proliferation assay, MCF7. The class given is cell-based, human. As to conditions: Homo sapiens, MCF7, 96 h, MCF7 cells, 4 days, crystal violet. An excerpt:
(§1) Cultivated human tumor cells (MCF7, […] human breast cancer cells, related to ATCC HTB22; NCI-H460, human non-small-cell lung cancer cells, ATCC HTB-177, HCT 116, human colon cancer cells, ATCC CCL-247; DU 145, hormone-independent human prostate cancer cells, ATCC HTB-81; MaTu-MDR, hormone-independent, multiple pharmaceutical agent-resistant human breast cancer cells, EPO-GmbH, Berlin) were flattened out at a density of about 5000 cells/measuring point, depending on the growth rate of the respective cells, in a 96-well multititer plate in 200 μl of the corresponding growth medium. After 24 hours, the cells of one plate (zero-point plate) were colored with crystal violet (see below), while the medium of the other plates was replaced by fresh culture medium (200 μl), to which the test substances were added in various concentrations (0 μm, as well as in the range of 0.01-30 μm; the final concentration of the solvent dimethyl sulfoxide was 0.5%). The cells were incubated for 4 days in the presence of test substances. The cell proliferation was determined by coloring the cells with crystal violet: the cells were fixed by adding 20 μl/measuring point of an 11% glutaric aldehyde solution for 15 minutes at room temperature. After three washing cycles of the fixed cells with water, the plates were dried at room temperature. The cells were colored by adding 100 μl/measuring point of a 0.1% crystal violet solution (the pH was set at 3 by adding acetic acid). After three washing cycles of the colored cells with water, the plates were dried at room temperature. The dye was dissolved by adding 100 μl/measuring point of a 10% acetic acid solution. The extinction was determined by photometry at a wavelength of 595 nm The change of cell growth, in percent, was calculated by normalization of the measured values to the extinction values of the zero-point plate (=0%) and the extinction of the untreated (0 μm) cells (=100%).

For test [2], the system named is MaTu-ADR. Nature of the test: Proliferation assay, MaTu-ADR. The class given is cell-based, human. The conditions noted are these: Homo sapiens, 96 h, MaTu-ADR cells, 4 days, crystal violet.
Excerpt: as §1

Test [3] has as its target CDK1/CycB (Homo sapiens (Human), UniProt P06493). Put plainly: CDK1/CycB kinase assay. The class given is biochemical. As to conditions: histone IIIS substrate, 0.5 μm ATP. The procedure:
Recombinant CDK1- and CycB-GST-fusion proteins, purified from baculovirus-infected insect cells (Sf9), were purchased from ProQinase GmbH, Freiburg. Histone IIIS, used as a kinase substrate, is available commercially from the Sigma Company.
The reaction was stopped by adding EDTA solution (250 mmol, pH 8.0, 14 μl/measuring point).
(§2) From each reaction batch, 10 μl was applied to P30 filter strips (Wallac Company), and non-incorporated 33P-ATP was removed by subjecting the filter strips to three washing cycles for 10 minutes each in 0.5% phosphoric acid. After the filter strips were dried for one hour at 70° C., the filter strips were covered with scintillator strips (MeltiLex™ A, Wallac Company) and baked for one hour at 90° C. The amount of incorporated 33P (substrate phosphorylation) was determined by scintillation measurement in a gamma-radiation measuring device (Wallac).

In test [4] the test system is H460. Put plainly: Proliferation assay, H460. The class given is cell-based, human. As to conditions: Homo sapiens, NCI-H460, 96 h, H460 cells, 4 days, crystal violet.
Excerpt: as §1

For test [5], the system named is DU145. Put plainly: Proliferation assay, DU145. As to conditions: Homo sapiens, DU-145, 96 h, DU145 cells, 4 days, crystal violet. The class given is cell-based, human.
Excerpt: as §1

Test [6] addresses VEGF-R2 (Homo sapiens (Human), UniProt P35968). Nature of the test: VEGF receptor-2 kinase assay. The class given is biochemical. The conditions noted are these: poly-(Glu4Tyr) substrate, 8 μmol ATP. The procedure:
Recombinant VEGF receptor tyrosine kinase-2 was purified as a GST fusion protein from baculovirus-infected insect cells (Sf9). Poly-(Glu4Tyr), which was used as a kinase substrate, was purchased by the Sigma Company.
VEGF receptor tyrosine kinase (90 ng/measuring point) was incubated for 10 minutes at 22° C. in the presence of various concentrations of test substances (0 μm, as well as within the range of 0.001-30 μm) in 30 μl of assay buffer [40 mmol of Tris/HCl, […], 10 mmol of MgCl2, 1 mmol of MnCl2, 3 μmol of Na ortho-vanadate, 1.0 mmol of dithiothreitol, 8 μmol of adenosine trisphosphate (ATP), 27 μg/measuring point of poly-(Glu4Tyr), 0.2 μCi/measuring point of 33P-gamma ATP, 1% dimethyl sulfoxide]. The reaction was stopped by adding EDTA solution (250 mmol, pH 7.0, 10 μl/measuring point).
as §2

Test [7] concerns the target CDK2/CycE (Homo sapiens (Human), UniProt P24941). Put plainly: CDK2/CycE kinase assay. The class given is biochemical. As to conditions: histone IIIS substrate, 0.5 μm ATP. The procedure: Recombinant CDK2- and CycE-GST-fusion proteins, purified from baculovirus-infected insect cells (Sf9), were purchased by ProQinase GmbH, Freiburg. Histone IIIs, which was used as a kinase substrate, was purchased by the Sigma Company.
CDK2/CycE (50 ng/measuring point) was incubated for 15 minutes at 22° C. in the presence of various concentrations of test substances (0 μm, as well as within the range of 0.01-100 μm) in assay buffer [50 mmol of tris/HCl, pH 8.0, 10 mmol of MgCl2, 0.1 mmol of Na ortho-vanadate, 1.0 mmol of dithiothreitol, 0.5 μm of adenosine triphosphate (ATP), 10 μg/measuring point of histone IIIS, 0.2 μCi/measuring point of ^33P-gamma ATP, 0.05% NP40, 12.5% dimethyl sulfoxide]. The reaction was stopped by adding EDTA solution (250 mmol, pH 8.0, 14 μl/measuring point).
From each reaction batch, 10 μl was applied to P30 filter strips (Wallac Company), and non-incorporated ^33P-ATP was removed by subjecting the filter strips to three washing cycles for 10 minutes each in 0.5% phosphoric acid. After the filter strips were dried for one hour at 70° C., the filter strips were covered with scintillator strips (MeltiLex™ A, Wallac Company) and baked for one hour at 90° C. The amount of incorporated ^33P (substrate phosphorylation) was determined by scintillation measurement in a gamma-radiation measuring device (Wallac).

Sequence of CDK1/CycB (P06493 whole entry, the tested form may be a part): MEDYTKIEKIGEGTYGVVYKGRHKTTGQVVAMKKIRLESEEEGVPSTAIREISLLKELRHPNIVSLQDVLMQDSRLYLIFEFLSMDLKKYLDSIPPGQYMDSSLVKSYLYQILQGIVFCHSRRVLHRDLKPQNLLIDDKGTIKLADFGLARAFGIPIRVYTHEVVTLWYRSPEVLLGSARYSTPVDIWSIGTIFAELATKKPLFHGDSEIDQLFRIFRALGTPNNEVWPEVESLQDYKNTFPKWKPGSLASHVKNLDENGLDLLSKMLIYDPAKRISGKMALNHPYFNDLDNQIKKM
Sequence of CDK1/CycB (P14635 whole entry partner, the tested form may be a part): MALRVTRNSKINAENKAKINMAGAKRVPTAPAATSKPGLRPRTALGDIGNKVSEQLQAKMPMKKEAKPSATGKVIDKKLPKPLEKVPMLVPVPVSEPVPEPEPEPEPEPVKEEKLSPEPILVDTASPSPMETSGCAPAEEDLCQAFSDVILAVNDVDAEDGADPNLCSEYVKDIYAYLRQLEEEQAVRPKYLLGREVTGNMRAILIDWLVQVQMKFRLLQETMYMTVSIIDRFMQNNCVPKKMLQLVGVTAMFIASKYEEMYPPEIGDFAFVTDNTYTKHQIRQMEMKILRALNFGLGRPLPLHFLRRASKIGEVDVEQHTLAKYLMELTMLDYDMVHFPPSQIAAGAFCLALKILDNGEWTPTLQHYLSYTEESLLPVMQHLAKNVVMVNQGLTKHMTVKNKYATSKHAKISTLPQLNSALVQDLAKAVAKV
Sequence of VEGF-R2 (P35968 20-1356, species assumed): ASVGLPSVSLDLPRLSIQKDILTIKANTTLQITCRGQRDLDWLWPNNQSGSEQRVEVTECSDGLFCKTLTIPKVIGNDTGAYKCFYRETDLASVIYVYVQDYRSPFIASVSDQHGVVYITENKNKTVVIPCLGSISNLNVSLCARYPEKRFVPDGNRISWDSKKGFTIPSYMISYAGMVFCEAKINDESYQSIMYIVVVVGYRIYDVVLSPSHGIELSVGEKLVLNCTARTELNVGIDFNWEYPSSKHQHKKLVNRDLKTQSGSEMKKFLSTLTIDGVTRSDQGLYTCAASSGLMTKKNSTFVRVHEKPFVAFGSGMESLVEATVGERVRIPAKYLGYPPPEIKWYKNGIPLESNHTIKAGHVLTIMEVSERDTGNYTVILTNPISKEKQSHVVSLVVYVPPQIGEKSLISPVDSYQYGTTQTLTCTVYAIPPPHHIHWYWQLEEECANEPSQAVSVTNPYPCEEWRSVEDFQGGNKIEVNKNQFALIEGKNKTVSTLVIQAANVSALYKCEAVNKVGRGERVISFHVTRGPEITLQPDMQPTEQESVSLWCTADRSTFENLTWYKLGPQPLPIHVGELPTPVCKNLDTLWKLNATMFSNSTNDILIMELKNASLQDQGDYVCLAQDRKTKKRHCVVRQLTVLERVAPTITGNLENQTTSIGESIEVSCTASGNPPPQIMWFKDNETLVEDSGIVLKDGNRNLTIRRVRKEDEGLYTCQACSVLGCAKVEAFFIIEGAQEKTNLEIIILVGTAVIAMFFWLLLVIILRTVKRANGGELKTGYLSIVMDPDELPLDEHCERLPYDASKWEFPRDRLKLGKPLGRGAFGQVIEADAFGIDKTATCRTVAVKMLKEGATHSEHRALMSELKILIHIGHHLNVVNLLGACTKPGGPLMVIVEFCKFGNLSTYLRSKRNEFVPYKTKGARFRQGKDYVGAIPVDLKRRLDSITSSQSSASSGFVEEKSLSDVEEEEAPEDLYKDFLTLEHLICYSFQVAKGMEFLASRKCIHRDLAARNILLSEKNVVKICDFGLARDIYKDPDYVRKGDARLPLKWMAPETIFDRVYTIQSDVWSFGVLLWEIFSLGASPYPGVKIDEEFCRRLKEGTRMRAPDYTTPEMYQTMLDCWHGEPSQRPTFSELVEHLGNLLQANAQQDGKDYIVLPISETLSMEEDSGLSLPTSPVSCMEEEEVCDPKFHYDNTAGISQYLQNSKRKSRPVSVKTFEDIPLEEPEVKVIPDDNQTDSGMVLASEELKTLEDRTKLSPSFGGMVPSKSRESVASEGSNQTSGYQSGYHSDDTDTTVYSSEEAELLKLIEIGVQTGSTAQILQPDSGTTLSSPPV

The term pIC50 denotes the IC50 on a negative log10 scale, so that one unit is a factor of ten. For the compound `C[C@@H](Nc1nc(Nc2ccc(S(=N)(=O)CCO)cc2)ncc1Br)C(C)(C)O` (single isomer, unassigned) [Example 1.15], the negative-log IC50 (pIC50) in test [1] was 6.74; in test [2], 6.52; in test [3], 7.60; in test [4], 6.70; in test [5] it was 6.52; in test [6] it was 7.23.
Take `COC[C@@H](Nc1nc(Nc2ccc(S(C)(=N)=O)cc2)ncc1Br)[C@@H](C)O` (single isomer, unassigned) [Example 1.47]: the pIC50 in test [1] is 6.22; in test [2], 6.10; in test [7], 8.22; in test [4] it was 6.22; in test [5] it was 6.22.
